Data from ChEMBL document CHEMBL2069296, “A novel series of G-quadruplex ligands with selectivity for HIF-expressing osteosarcoma and renal cancer cell lines” (Bioorg Med Chem Lett, 2012).
Activity calls are given as the source filed them. The rule behind the calls is not given here.

Columns and labels:
U2OS = assay: Antiproliferative activity against human U2OS cells after 96 hrs by SRB assay; assay type: functional, cell-based
PC-3 = assay: Antiproliferative activity against human PC3 cells after 96 hrs by SRB assay; assay type: functional, cell-based; conditions: PC-3, 96 h
A549 = assay: Antiproliferative activity against human A549 cells after 96 hrs by SRB assay; assay type: functional, cell-based; conditions: A549, 96 h
HPAC = assay: Antiproliferative activity against human HPAC cells after 96 hrs by SRB assay; assay type: functional, cell-based
[1] = Antiproliferative activity against human TC135 cells after 96 hrs by SRB assay; assay type: functional, cell-based; conditions: TC135, 96 h
MG-63 = assay: Antiproliferative activity against human MG63 cells after 96 hrs by SRB assay; assay type: functional, cell-based; conditions: MG-63, 96 h
SAOS-2 = assay: Antiproliferative activity against human Saos2 cells after 96 hrs by SRB assay; assay type: functional, cell-based; conditions: SAOS-2, 96 h
Nucleic Acid [2] = assay: Binding affinity to HIF2alpha DNA by surface plasmon resonance assay; assay type: nucleic-acid assay
MIA PaCa-2 = assay: Antiproliferative activity against human MIAPaCa2 cells after 96 hrs by SRB assay; assay type: functional, cell-based; conditions: MIA PaCa-2, 96 h
PANC-1 = assay: Antiproliferative activity against human PANC1 cells after 96 hrs by SRB assay; assay type: functional, cell-based; conditions: PANC-1, 96 h
[3] = Antiproliferative activity against human 786-O cells after 96 hrs by SRB assay; assay type: functional, cell-based; conditions: 786-0, 96 h
[4] = Antiproliferative activity against human TC32 cells after 96 hrs by SRB assay; assay type: functional, cell-based; conditions: TC-32, 96 h
[5] = Antiproliferative activity against human TC71 cells after 96 hrs by SRB assay; assay type: functional, cell-based; conditions: TC-71, 96 h
[6] = Antiproliferative activity against human RCC4/VHL cells after 96 hrs by SRB assay; assay type: functional, cell-based
HOS = assay: Antiproliferative activity against human HOS cells after 96 hrs by SRB assay; assay type: functional, cell-based
HOS-TE85 = assay: Antiproliferative activity against human MNNG-HOS cells after 96 hrs by SRB assay; assay type: functional, cell-based; conditions: HOS-TE85, 96 h
A498 = assay: Antiproliferative activity against human A498 cells after 96 hrs by SRB assay; assay type: functional, cell-based; conditions: A498, 96 h
Nucleic Acid [7] = assay: Binding affinity to 5'-GGGGCGGGCACGGGGCGGG-3' DNA by surface plasmon resonance; assay type: nucleic-acid assay
[8] = Antiproliferative activity against human RCC4 cells after 96 hrs by SRB assay; assay type: functional, cell-based; conditions: RCC4, 96 h
WI-38 = assay: Cytotoxicity against human WI38 after 96 hrs by SRB assay; assay type: cell-based; conditions: WI-38, 96 h
Nucleic Acid [9] = assay: Binding affinity to HIF1alpha DNA by surface plasmon resonance assay; assay type: nucleic-acid assay
MCF7 = assay: Antiproliferative activity against human MCF7 cells after 96 hrs by SRB assay; assay type: functional, cell-based; conditions: MCF7, 96 h
OST = assay: Antiproliferative activity against human OST cells after 96 hrs by SRB assay; assay type: functional, cell-based

IC50 (U2OS) [µM] | IC50 (PC-3) [µM] | IC50 (A549) [µM] | IC50 (MIA PaCa-2) [µM] | IC50 (PANC-1) [µM] | IC50 (MCF7) [µM] | Compound | IC50 (HPAC) [µM] | IC50 [1] [µM] | IC50 (MG-63) [µM] | IC50 (SAOS-2) [µM] | IC50 [3] [µM] | IC50 [4] [µM] | IC50 [5] [µM] | IC50 [6] [µM] | IC50 (HOS) [µM] | IC50 (HOS-TE85) [µM] | IC50 (A498) [µM] | IC50 [8] [µM] | IC50 (WI-38) [µM] | IC50 (OST) [µM] | further results
22 | > 100 | > 100 | > 100 | > 100 | > 100 | O=C(CN1CCCCC1)Nc1cccc(-n2cc(-c3ccc4ccc(-c5cn(-c6cccc(NC(=O)CN7CCCCC7)c6)nn5)cc4c3)nn2)c1 | 96 | 14 | 90 | 16 | 17.5 | 6.6 | 81 | 2.7 | 47 | 23 | 19 | 2.6 | > 10 | 37 | K (Nucleic Acid [2]): 0.59 ×10⁷ /M; K (Nucleic Acid [7]): inactive; K (Nucleic Acid [9]): 0.81 ×10⁷ /M
7.8 | 7.8 | 29 | 17.5 | 7.4 | 21 | CCN(CC)CCC(=O)Nc1cccc(-n2cc(-c3ccc4ccc(-c5cn(-c6cccc(NC(=O)CCN(CC)CC)c6)nn5)cc4c3)nn2)c1 |  | 2.6 |  | 2.8 | 9.8 | 2.5 | 28 | 2.7 |  | 3.1 | 9.9 | 1.6 | 10.6 | 2.1 | 
22 | > 100 | > 100 | > 100 | > 100 | 100 | CCN(CC)CC(=O)Nc1ccc(-n2cc(-c3ccc4ccc(-c5cn(-c6ccc(NC(=O)CN(CC)CC)cc6)nn5)cc4c3)nn2)cc1 | 52 | 23 | 81 | 95 | 23 | 29 | > 100 | 26 | 75 | 25 | 8 | 22 | 9 | 37 | K (Nucleic Acid [2]): 0.15 ×10⁷ /M; K (Nucleic Acid [7]): inactive; K (Nucleic Acid [9]): 1.25 ×10⁷ /M
18 | 91 | 80.5 | 25.5 | 88 | > 100 | O=C(CN1CCCC1)Nc1ccc(-n2cc(-c3ccc4ccc(-c5cn(-c6ccc(NC(=O)CN7CCCC7)cc6)nn5)cc4c3)nn2)cc1 | 9.5 | 3.2 | > 10 | 9 | 2.6 | 2.5 | 14 | 6.4 | 2.6 | 9.1 | 3.5 | 5.1 | 26 | 14 | K (Nucleic Acid [2]): 0.97 ×10⁷ /M; K (Nucleic Acid [7]): inactive; K (Nucleic Acid [9]): 1.49 ×10⁷ /M
5.1 | 8.2 | 7.6 | 12.5 | 8 | 9.2 | CCN(CC)CCC(=O)Nc1ccc(-n2cc(-c3ccc4ccc(-c5cn(-c6ccc(NC(=O)CCN(CC)CC)cc6)nn5)cc4c3)nn2)cc1 | 6.9 | 2.2 | 7 | 2.5 | 5.6 | 2.1 | 7.5 | 2.4 | 5.2 | 2.8 | 6.9 | 1.9 | 7.4 | 1.9 | 
